Measurements published in PMC12631912, “A Multifunctional Molecular Probe for Multimodal Imaging‐Guided Potent Photothermal/Photodynamic Therapy of Endometriosis” (Advanced Science, 2025).

Legend:
[1] = T1 relaxivity (r1) of probe solutions by MRI; format: physicochemical; conditions: in PBS, 3.0 T MRI scanner, room temperature; slope of 1/T1 versus Gd concentration; n = 3 regions of interest
Method: An inversion recovery spin echo sequence was executed with the parameters: repetition time (TR) = 5.27 ms, echo time (TE) = 2.29 ms, field of view (FOV) = 160 mm × 160 mm, acquisition matrix = 336 × 336, acquisition voxel = 0.48 mm × 0.48 mm × 2 mm, slice thickness = 2 mm, reconstruction matrix = 672 × 672, reconstruction voxel = 0.24 mm × 0.24 mm × 2 mm, number of flip angles = 4 (3°, 6°, 9°, 13°), and NSA = 1. Regions of interest (ROI, average size 10 mm^2) were analyzed to acquire the T1 relaxation times. The r 1 was then calculated based on the slope of the linear plot between 1/T1 and Gd concentration, determined through linear least‐squares regression analysis.

[2] = ROS generation in solution with DPBF indicator under 808 nm laser; format: physicochemical; conditions: C ICG = 10 µg mL^−1 in methanol, DPBF absorbance at 410 nm, 808 nm laser 1.0 W cm^−2, within 10 min
Method: The generation of ROS was quantified using DPBF as a probe. […] The gradual decrease in the UV absorption of DPBF was monitored using a UV–vis spectrophotometer, and the correlation between the UV absorbance values and the laser exposure time was recorded.

[3] = Photothermal heating and photothermal conversion efficiency of probe solutions; format: physicochemical; conditions: for temperature elevation of solution: 808 nm laser, 1.0 W cm^−2, 5 min
Method: Subsequently, a digital thermographic camera (Fluke Ti27, IR Fusion Technology, USA) was used to capture infrared thermal images and measure temperatures. The relationship between temperature values and laser irradiation duration was recorded using AnalyzIR software (4.0.0). […] The PCE (η) was subsequently calculated based on these measurements.^[ [41] ^]

EESCs [4] = assay: Intracellular ROS generation, DCFH-DA, flow cytometry; format: cell-based, human; conditions: C ICG = 20 µg mL^−1, 4 h, + laser (808 nm, 1.0 W cm^−2, 5 min)
Method: (§1) DCFH‐DA was utilized to evaluate the intracellular ROS production induced by molecular probes under laser irradiation. Specifically, the cells (1 × 10^4 per well) were seeded onto confocal dishes and incubated overnight at 37 °C. […] Following this, the cells were carefully rinsed three times with fresh PBS. Subsequently, the cells were irradiated with an 808 nm laser (1.0 W cm^− ^2, 5 min). Intracellular ROS levels were then visualized and analyzed using a CLSM.
(§2) Additionally, a quantitative assessment of intracellular ROS production was performed using flow cytometry under the same conditions as the above experimental conditions. […] The cells were then trypsinized and harvested. After exposure to an 808 nm laser (1.0 W cm^− ^2, 5 min), the collected cells were analyzed on an Attune NxT flow cytometer (Invitrogen, USA). The resulting data was analyzed with NovoExpress 1.4.0 software (Agilent, USA).

Ishikawa cells = assay: as above; format: cell-based; conditions: C ICG = 20 µg mL^−1, 4 h, + laser (808 nm, 1.0 W cm^−2, 5 min)
Method: as §1, §2

EESCs [5] = assay: In vitro photothermal/photodynamic therapy, CCK-8 viability after laser; format: cell-based, human; conditions: CCK-8, 2 h incubation, 808 nm, 1.0 W cm^−2, 5 min, concentration of the quoted value not stated (range 2.5 to 50 µg mL^−1 ICG), mean ± SD, n = 4
Method: Ishikawa cells and EESCs were seeded in a 96‐well plate at a density of 1 × 10^4 cells per well and allowed to adhere overnight. […] Following this incubation, the cells were irradiated with an 808 nm laser (1.0 W cm^−2, 5 min). The viability of cells was measured using the CCK‐8 assay.

endometriotic lesions = assay: In vivo anti-EMS efficacy, xenograft model; design: species or system BALB/c nude mice; conditions: xenograft EMS nude mice
Method: As shown in previous references,^[ [19] ^] to establish a xenograft EMS model in nude mice, female BALB/c nude mice (5‐6 weeks, 18‐20 g) served as recipients, and female Sprague–Dawley rats (7‐9 weeks, 200–240 g) with regular 4–5 days estrous cycles were selected as donors after a week of acclimatization. Prior to surgery, nude mice received daily intramuscular β‐estradiol 17‐pentanoate (0.25 µg g^−1) for 3 days. The EMS model was induced by subcutaneous transplantation of ≈40 mg of rat uterine fragments into nude mice. The uterine horns from euthanized donors were sterilely collected, bisected, minced, and suspended in DMEM/F12 medium before injection. Nude mice then received β‐estradiol 17‐pentanoate (0.25 µg g^−1) injections every 2 days, and endometriotic lesions reaching 100 mm^3 were used for subsequent experiments.
Mice were injected with different formulations via the tail vein every 3 days until euthanasia, with an ICG dose of 3 mg kg^−1. For groups receiving NIR laser irradiation, the procedure was conducted 1 h post‐administration with a power of 1.0 W cm^− ^2 for 10 min. Mouse body weights were recorded every 3 days, and xenograft growth was monitored using a vernier caliper. EMS rats (n = 4) underwent the same treatment strategy after 28 days of autotransplantation, with body weight changes monitored every 3 days. After 18 days of treatment, rats were euthanized for autograft size measurement. Nude mice were euthanized after 18 days for graft extraction, followed by H&E staining and TUNEL assay. Briefly, sections were deparaffinized, hydrated, stained with H&E, and visualized under an optical microscope.
TUNEL staining was performed following the instructions provided in the FITC TUNEL Cell Apoptosis Detection Kit (G1501, Servicebio, Wuhan). Paraffin sections were dewaxed, hydrated, repaired with proteinase K, and permeabilized with Triton X‐100. After incubating with buffer at room temperature for 10 min, a reaction solution containing TdT enzyme, dUTP, and buffer (1:5:50 ratio) was added and incubated at 37 °C for 1 h. Nuclei were counterstained with DAPI for 10 min, followed by three 5 min PBS washes (pH 7.4) on a decolorizing shaker. The slides were then blocked with an anti‐fluorescence quenching blocker (G1401, Sevier, Wuhan). The slides were visualized under CLSM with DAPI (blue light, excited at 330–380 nm, emitted at 420 nm) and FITC (green light, excited at 465–495 nm, emitted at 515–555 nm).

Row | Substance | T 1 relaxivities (r 1) [1] | reduction in DPBF absorbance (ROS generation) [2] | temperature elevation of solution ([3]; C ICG = 50 µg mL^−1 in PBS) | intracellular ROS, normalized fluorescence intensity (DCFH-DA) (EESCs [4]) | intracellular ROS, normalized fluorescence intensity (DCFH-DA) (Ishikawa cells) | cell viability after laser irradiation (EESCs [5]) | H&E histology of ectopic lesions, probe + laser (endometriotic lesions; after 18 days of treatment) | maximum temperature increase ([3]; 50 µg/mL, 1 W/cm², laser on/off, 5 photothermal cycles (Figure S12a)) | Photothermal conversion efficiency (PCE) ([3]; C ICG = 50 µg mL^−1 in PBS, 808 nm, 1 W/cm², calculated from heating and cooling curves) | therapeutic efficacy, probe + laser (endometriotic lesions; ICG 3 mg kg^−1 i.v. every 3 days, 808 nm 1.0 W cm^−2 10 min, 18 days, n = 5) | TUNEL assay of lesions, probe + laser (endometriotic lesions; after 18 days of treatment)
1 | ICG‐lys‐DTPA@Gd [ILD] | 5.37 mM⁻¹ s⁻¹ | ~56% | ≈ 20 °C | 93.85% | 88.54% | 55.35 ± 1.1% | pronounced graft growth suppression |  |  |  | 
2 | c(RGDyK)‐ICG‐lys‐DTPA@Gd (head to tail) [cRGD‐ILD, targeting theranostic probe integrating cRGD peptide, ICG fragment and DTPA@Gd complex] | 4.85 mM⁻¹ s⁻¹ | ≈ 58% | ≈ 20 °C | 96.99% | 94.2% | 30.27 ± 2.02% | pronounced graft growth suppression | ≈ 45 °C | 29.81% | outperformed the ILD + laser combination | peak apoptotic activity
